Earlier results as cited in US12576017B2, “Sunscreen composition with enhanced photoprotection” (Edgewell Personal Care Brands, LLC, priority 2021, dated 2026).

Details: lipid/water partition

SMILES | Log P @25° C.
COc1ccc(C(=O)c2ccccc2)c(O)c1 [Benzophenone-3, 2-hydroxy-4-methoxybenzophenone] | 2.63
COc1cc(O)c(C(=O)c2ccccc2)cc1S(=O)(=O)O [Benzophenone-4, 2-hydroxy-4-methoxybenzophenone-5-sulfonic acid] | −1.51
COc1ccc(C(=O)c2ccccc2O)c(O)c1 [Benzophenone-8, 2,2′-dihydroxy-4-methoxybenzophenone] | 2.15
CCOCCOC(=O)/C=C/c1ccc(OC)cc1 [Cinoxate, Ethoxyethyl methoxy cinnamate] | 2.55
CCOC(=O)c1ccc(N(CC(C)O)CC(C)O)cc1 (stereo not shown) [Ethyl dihydroxypropyl PABA, Ethyl-4-bis(2-hydroxypropyl-aminobenzoate)] | 2.84
Nc1ccc(C(=O)OCC(O)CO)cc1 (stereo not shown) [Glyceryl PABA, 1,2,3-Propanetriol,1-(4-aminobenzoate)] | −0.02
CC1CC(OC(=O)c2ccccc2O)CC(C)(C)C1 (stereo not shown) [Homosalate, Homomenthyl salicylate] | 5.61
CC1CCC(C(C)C)C(OC(=O)c2ccccc2N)C1 (stereo not shown) [Menthyl anthranilate, Menthyl-O aminobenzoate] | 5.05
CCCCC(CC)COC(=O)C(C#N)=C(c1ccccc1)c1ccccc1 (stereo not shown) [Octocrylene, Octyl cyanodiphenylacrylate] | 5.69
CCCCC(CC)COC(=O)c1ccc(N(C)C)cc1 (stereo not shown) [Octyl dimethyl PABA, 2-Ethylhexyl-p-dimethyl aminobenzoate] | 6.08
CCCCC(CC)COC(=O)C=Cc1ccc(OC)cc1 (stereo not shown) [Octyl methoxy cinnamate, Ethylhexyl-p-methoxy cinnamate] | 5.65
CCCCC(CC)COC(=O)c1ccccc1O (stereo not shown) [Octyl salicylate, 2-Ethylhexyl salicylate] | 5.30
Nc1ccc(C(=O)O)cc1 [PABA, p-Amino benzoic acid] | 0.74
